Measured values from patent US11000033B2, “Ketone or oxime compound, and herbicide” (NISSAN CHEMICAL CORPORATION, priority 2014, dated 2021).

Assays:
Format in all cases: in vivo
soybean = assay: Test Example 4: effect on crop by soil treatment (symbol d); details: application herbicide amount 320 g/ha
Method in brief: (§1)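 Greenhouse culture at 25° C. to 30° C. followed sowing of seed in spots on sterilized diluvial soil with a soil cover close to 1.5 cm thick.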

Veronica persica = assay: Test Example 5: herbicidal effect by foliage application, plastic box (symbol R); details: 320 g/ha, 3 weeks after application
Method in brief: (§2)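 After sowing into sterilized diluvial soil and growing two weeks under glass at 25° C. to 30° C., seedlings receive a uniform foliar spray of diluted emulsion. Damage is judged visually three weeks on.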

[1] = tested on: Echinochloa crus-galli var. crus-galli; assay: Test Example 4: herbicidal effect by soil treatment (symbol H); details: application herbicide amount 320 g/ha
Method in brief: (§3)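 Seeds were sown in sterilized diluvial soil, covered with about 1.5 cm of soil, and the soil surface was sprayed with a water-diluted emulsion of the compound at a predetermined rate. Plants grew in a greenhouse at 25° C. to 30° C.; effects were scored visually 3 weeks after application.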

beet [2] = assay: Test Example 4: effect on crop by soil treatment (symbol f); details: application herbicide amount 320 g/ha
Method in brief: as §1

[3] = tested on: Echinochloa crus-galli var. crus-galli; assay: Test Example 3: herbicidal effect by foliage application, Wagner pot (symbol H); details: application herbicide amount 320 g/ha, Table 24
Method in brief: (§4)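 In a shallow-flooded alluvial soil system held at 25–30 °C, plants including rice grew for 14 days and were then sprayed over the foliage with emulsion diluted to a fixed herbicide amount. Visual rating followed at 3 weeks.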

beet [4] = assay: Test Example 5: effect on crop by foliage application, plastic box (symbol f); details: 320 g/ha, 3 weeks after application
Method in brief: (§5)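 Foliage-application test plants come from spot sowing in sterilized diluvial soil under a soil layer of about 1.5 cm, grown at 25° C. to 30° C. in a greenhouse.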

[5] = tested on: Echinochloa oryzacola Vasing.; assay: Test Example 2: herbicidal activity, application during weed generation in submerged conditions (symbol A); details: Table 23; application herbicide amount 320 g/ha; grade 0-5 by criteria of Test Example 1
Method in brief: (§6)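 Compound was applied as a water-diluted emulsion into the standing water of flooded pots (4 cm) once co-sown weeds reached one to two leaves. Greenhouse temperature was 25° C. to 30° C., soil was alluvial, and each species was rated visually after 3 weeks.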

Amaranthus retroflexus [6] = assay: Test Example 4: herbicidal effect by soil treatment (symbol N); details: application herbicide amount 320 g/ha
Method in brief: as §3

Alopecurus myosuroides = assay: Test Example 4: herbicidal effect by soil treatment (symbol J); details: application herbicide amount 320 g/ha
Method in brief: as §3

Stellaria media = assay: Test Example 5: herbicidal effect by foliage application, plastic box (symbol P); details: 320 g/ha, 3 weeks after application
Method in brief: as §2

Chenopodium album [7] = assay: Test Example 5: herbicidal effect by foliage application, plastic box (symbol O); details: 320 g/ha, 3 weeks after application
Method in brief: as §2

Scirpus juncoides = assay: Test Example 2: herbicidal activity, application during weed generation in submerged conditions (symbol B); details: Table 23; application herbicide amount 320 g/ha; grade 0-5 by criteria of Test Example 1
Method in brief: as §6

Lolium multiflorum Lam. = assay: Test Example 4: herbicidal effect by soil treatment (symbol K); details: application herbicide amount 320 g/ha
Method in brief: as §3

Setaria viridis = assay: Test Example 5: herbicidal effect by foliage application, plastic box (symbol G); details: 320 g/ha, 3 weeks after application
Method in brief: as §2

wheat = assay: Test Example 4: effect on crop by soil treatment (symbol e); details: application herbicide amount 320 g/ha
Method in brief: as §1

Abutilon theophrasti = assay: Test Example 5: herbicidal effect by foliage application, plastic box (symbol M); details: 320 g/ha, 3 weeks after application
Method in brief: as §2

rice plant = assay: Test Example 5: effect on crop by foliage application, plastic box (symbol b); details: 320 g/ha, 3 weeks after application
Method in brief: as §5

Chenopodium album [8] = assay: Test Example 4: herbicidal effect by soil treatment (symbol O); details: application herbicide amount 320 g/ha
Method in brief: as §3

Cyperus difformis = assay: Test Example 3: herbicidal effect by foliage application, Wagner pot (symbol E); details: application herbicide amount 320 g/ha, Table 24
Method in brief: as §4

Amaranthus retroflexus [9] = assay: Test Example 5: herbicidal effect by foliage application, plastic box (symbol N); details: 320 g/ha, 3 weeks after application
Method in brief: as §2

SMILES | R: Veronica persica, herbicidal effect grade (Veronica persica) | H (Echinochloa crus-galli var. crus-galli) herbicidal effect grade [3] | f: beet, effect on crop grade (beet [4]) | Herbicidal effect grade, A: Echinochloa oryzacola Vasing. [5] | P: Stellaria media, herbicidal effect grade (Stellaria media) | O: Chenopodium album, herbicidal effect grade (Chenopodium album [7]) | Herbicidal effect grade, B: Scirpus juncoides (Scirpus juncoides) | G: Setaria viridis, herbicidal effect grade (Setaria viridis) | M: Abutilon theophrasti, herbicidal effect grade (Abutilon theophrasti) | b: directly sowed rice plant, effect on crop grade (rice plant) | E herbicidal effect grade (Cyperus difformis) | N: Amaranthus retroflexus, herbicidal effect grade (Amaranthus retroflexus [9]) | d: soybean, effect on crop grade (soybean) | H: Echinochloa crus-galli var. crus-galli, herbicidal effect grade [1] | f: beet, effect on crop grade (beet [2]) | N: Amaranthus retroflexus, herbicidal effect grade (Amaranthus retroflexus [6]) | J: Alopecurus myosuroides, herbicidal effect grade (Alopecurus myosuroides) | K: Lolium multiflorum Lam., herbicidal effect grade (Lolium multiflorum Lam.) | e: wheat, effect on crop grade (wheat) | O: Chenopodium album, herbicidal effect grade (Chenopodium album [8]) | also measured
CON=C(C)CC1C(O)=C(c2c(C)cc(C)cc2C)C(=O)C1C (mixture of isomers) [12-002] | 4 (Herbicidal ratio of 70% or higher and lower than 90%) | 5 (Herbicidal ratio of 90% or more (almost completely withered)) | 3 (Herbicidal ratio of 40% or higher and lower than 70%) | 5 (Herbicidal ratio of 90% or more (almost completely withered)) | 4 (Herbicidal ratio of 70% or higher and lower than 90%) | 2 (Herbicidal ratio of 20% or higher and lower than 40%) | 3 (Herbicidal ratio of 40% or higher and lower than 70%) | 5 (Herbicidal ratio of 90% or more (almost completely withered)) | 1 (Herbicidal ratio of 5% or higher and lower than 20%) | 5 (Herbicidal ratio of 90% or more (almost completely withered)) | 5 (Herbicidal ratio of 90% or more (almost completely withered)) | 0 (Herbicidal ratio of 5% or lower (almost no effect)) | – | – | – | – | – | – | – | – | Effect on crop grade, d: soybean (soybean): 0 (Herbicidal ratio of 5% or lower (almost no effect)); Herbicidal effect grade, H: Echinochloa crus-galli var. crus-galli [1]: 5 (Herbicidal ratio of 90% or more (almost completely withered)); Effect on crop grade, f: beet (beet [2]): 0 (Herbicidal ratio of 5% or lower (almost no effect)); Herbicidal effect grade, N: Amaranthus retroflexus (Amaranthus retroflexus [6]): 0 (Herbicidal ratio of 5% or lower (almost no effect)); Herbicidal effect grade, J: Alopecurus myosuroides (Alopecurus myosuroides): 4 (Herbicidal ratio of 70% or higher and lower than 90%); Herbicidal effect grade, K: Lolium multiflorum Lam. (Lolium multiflorum Lam.): 5 (Herbicidal ratio of 90% or more (almost completely withered)); Effect on crop grade, e: wheat (wheat): 0 (Herbicidal ratio of 5% or lower (almost no effect)); Herbicidal effect grade, O: Chenopodium album (Chenopodium album [8]): 0 (Herbicidal ratio of 5% or lower (almost no effect))
CCC(CC1CC(O)=C(c2c(C)cc(Br)cc2OC)C1=O)=NOC (mixture of isomers) [13-001] | 0 (Herbicidal ratio of 5% or lower (almost no effect)) | 5 (Herbicidal ratio of 90% or more (almost completely withered)) | 0 (Herbicidal ratio of 5% or lower (almost no effect)) | 5 (Herbicidal ratio of 90% or more (almost completely withered)) | 0 (Herbicidal ratio of 5% or lower (almost no effect)) | 0 (Herbicidal ratio of 5% or lower (almost no effect)) | 0 (Herbicidal ratio of 5% or lower (almost no effect)) | 5 (Herbicidal ratio of 90% or more (almost completely withered)) | 1 (Herbicidal ratio of 5% or higher and lower than 20%) | 5 (Herbicidal ratio of 90% or more (almost completely withered)) | 4 (Herbicidal ratio of 70% or higher and lower than 90%) | 0 (Herbicidal ratio of 5% or lower (almost no effect)) | 0 (Herbicidal ratio of 5% or lower (almost no effect)) | 5 (Herbicidal ratio of 90% or more (almost completely withered)) | 0 (Herbicidal ratio of 5% or lower (almost no effect)) | 0 (Herbicidal ratio of 5% or lower (almost no effect)) | 4 (Herbicidal ratio of 70% or higher and lower than 90%) | 5 (Herbicidal ratio of 90% or more (almost completely withered)) | 0 (Herbicidal ratio of 5% or lower (almost no effect)) | 0 (Herbicidal ratio of 5% or lower (almost no effect)) | –
CCC(CC1CC(O)=C(c2c(C)cc(C)cc2OC)C1=O)=NOC (mixture of isomers) [13-003] | 1 (Herbicidal ratio of 5% or higher and lower than 20%) | 5 (Herbicidal ratio of 90% or more (almost completely withered)) | 0 (Herbicidal ratio of 5% or lower (almost no effect)) | 5 (Herbicidal ratio of 90% or more (almost completely withered)) | 1 (Herbicidal ratio of 5% or higher and lower than 20%) | 0 (Herbicidal ratio of 5% or lower (almost no effect)) | 4 (Herbicidal ratio of 70% or higher and lower than 90%) | 5 (Herbicidal ratio of 90% or more (almost completely withered)) | 4 (Herbicidal ratio of 70% or higher and lower than 90%) | 5 (Herbicidal ratio of 90% or more (almost completely withered)) | 5 (Herbicidal ratio of 90% or more (almost completely withered)) | 0 (Herbicidal ratio of 5% or lower (almost no effect)) | 0 (Herbicidal ratio of 5% or lower (almost no effect)) | 5 (Herbicidal ratio of 90% or more (almost completely withered)) | 0 (Herbicidal ratio of 5% or lower (almost no effect)) | 0 (Herbicidal ratio of 5% or lower (almost no effect)) | 5 (Herbicidal ratio of 90% or more (almost completely withered)) | 5 (Herbicidal ratio of 90% or more (almost completely withered)) | 0 (Herbicidal ratio of 5% or lower (almost no effect)) | 0 (Herbicidal ratio of 5% or lower (almost no effect)) | –
CCC(CC1CC(O)=C(c2c(C)cc(-c3ccccc3)cc2OC)C1=O)=NOC (mixture of isomers) [13-004] | 3 (Herbicidal ratio of 40% or higher and lower than 70%) | 5 (Herbicidal ratio of 90% or more (almost completely withered)) | 0 (Herbicidal ratio of 5% or lower (almost no effect)) | 5 (Herbicidal ratio of 90% or more (almost completely withered)) | 2 (Herbicidal ratio of 20% or higher and lower than 40%) | 4 (Herbicidal ratio of 70% or higher and lower than 90%) | 5 (Herbicidal ratio of 90% or more (almost completely withered)) | 5 (Herbicidal ratio of 90% or more (almost completely withered)) | 1 (Herbicidal ratio of 5% or higher and lower than 20%) | 5 (Herbicidal ratio of 90% or more (almost completely withered)) | 5 (Herbicidal ratio of 90% or more (almost completely withered)) | 0 (Herbicidal ratio of 5% or lower (almost no effect)) | 1 (Herbicidal ratio of 5% or higher and lower than 20%) | 5 (Herbicidal ratio of 90% or more (almost completely withered)) | 0 (Herbicidal ratio of 5% or lower (almost no effect)) | 4 (Herbicidal ratio of 70% or higher and lower than 90%) | 5 (Herbicidal ratio of 90% or more (almost completely withered)) | 5 (Herbicidal ratio of 90% or more (almost completely withered)) | 5 (Herbicidal ratio of 90% or more (almost completely withered)) | 0 (Herbicidal ratio of 5% or lower (almost no effect)) | –
